# Entries after “also recorded” stand apart in the source; their conditions may differ.
# Tests used:
# ABCA1 gene = assay: ABCA1 expression in primary macrophages by real-time PCR; format: cell-based, mouse; conditions: oxysterols 5 μM, 18 hours; less potently than GW3965 1 μM for the first three (FIG. 14 lower)
# Description: (§1) Primary mouse peritoneal macrophages were treated in the upper panel with LPS and the indicated ligands and harvested for real time PCR analysis of iNOS expression 6 h later. In the lower panel, cells were treated with the indicated ligands for 18 hours and harvest for real time PCR analysis of ABCA1 expression. GW3965 was used at a concentration of 1 μM. The oxysterols were used at a concentration of 5 μM.
# iNOS gene [1] = assay: iNOS expression in LPS-treated primary peritoneal macrophages by real-time PCR, LXR ligands; format: cell-based, mouse; conditions: for repression of iNOS activation: oxysterols 5 μM, LPS, 6 h, less potently than GW3965 1 μM where active (FIG. 14 upper)
# Description: Thioglycollate-elicited macrophages were isolated by peritoneal lavage 3 days following peritoneal injection of 2.5 ml 3% thioglycollate (DIFCO). Cells were plated in RPMI medium 1640 and 10% fetal bovine serum. After 5 h the medium was removed and cells were fed with fresh medium. For RNAi experiments, smart-pool siRNAs (Dharmacon) against NCoR and Ubc9 were transfected into primary macrophages using lipofectamine 2000 (Invitrogen), incubated for 48 h and validated by Q-PCR and Western Blotting. LPS (Sigma) was used at a concentration of 1 μg/ml and GW3965 (obtained under MTA from GlaxoSmithKline) was used at a concentration of 1 μM.
# Total RNA (isolated by RNeasy kit, Qiagen) was prepared from primary macrophages pretreated with 1 μM GW3965 (2 h) before 1 μg/ml LPS stimulation (6 h). One microgram of total RNA was used for CDNA synthesis, and 1 μl of cDNA was used for real time PCR using iNOS or inflammatory-gene-specific primers.
# (§2) Macrophages were transfected with siRNA for 48 h and then stimulated with LPS ([…]) for 6 h in the absence or presence of LXR ligand (GW3965, 1 μM). iNOS expression in peritoneal macrophages was evaluated by real-time quantitative PCR and iNOS promoter activation in RAW264.7 was evaluated by luciferase assay. […] Primary macrophages were treated with LPS ([…]) with or without the LXR ligand (GW3965, 1 μM) for 1 h.
# as §1
# iNOS promoter [2] = assay: Chromatin immunoprecipitation on the iNOS promoter in primary macrophages or RAW 264.7 cells; format: cell-based, mouse; conditions: primary macrophages, ligand 1 h then LPS 1 h (FIG. 1e)
# Description: 2-4×10^6 primary macrophages or RAW 264.7 cells were used per experimental point. Cells were pre-treated with 1 μM Ro (1 h) and stimulated with 1 μg/ml LPS (1 h). Cross-linking was carried out for 10 min with 1% formaldehyde and cells lysed with 1% SDS, 10 mM EDTA, 50 mM Tris-HCl pH 8.1 and sonicated 10 sec-5 times. Five μg antibody conjugated to sheep anti-rabbit dyna-beads (Dyna1) were used for immunoprecipitations. For PPARγ, 2 μg of H-100 plus 3 μg of PPARγ antibody from Geneka were used in combination. Alternatively, anti-HA protein A sepharose beads (Covance) were used for wild-type and mutant HA-tagged PPARγ proteins. HDAC3 and p65 antibodies were from SantaCruz. NCoR antibody was from Affinity Bioreagents, Inc. Beads were washed twice with wash buffer: 150 mM NaCl, 0.1% SDS, 1% Triton X-100, 2 mM EDTA, 20 mM Tris-HCl and subsequently with buffer: 0.25 M LiCl, 1% NP-40, 1% deoxycholate, 1 mM EDTA, 10 mM Tris-HCl. Beads were eluted in 300 μl of TE with 1% SDS and 0.1 M NaCO3. Elute samples and 10% inputs were reversed at 65° C. for a minimum of 6 h. […]
# In FIG. 1e, primary macrophages were pretreated with Ro or GW0072 for 1 h followed by 1 h LPS induction and formaldehyde crosslinking. A 150 base pair region of the iNOS promoter spanning the most proximal NF-κB site to the start of transcription was analyzed by ChIP assays using the indicated antibodies.
# PPARγ [3] = target: T1, PPARγ (Homo sapiens, UniProt P37231); conditions: cited from earlier work
# T1 sequence (P37231 1-505): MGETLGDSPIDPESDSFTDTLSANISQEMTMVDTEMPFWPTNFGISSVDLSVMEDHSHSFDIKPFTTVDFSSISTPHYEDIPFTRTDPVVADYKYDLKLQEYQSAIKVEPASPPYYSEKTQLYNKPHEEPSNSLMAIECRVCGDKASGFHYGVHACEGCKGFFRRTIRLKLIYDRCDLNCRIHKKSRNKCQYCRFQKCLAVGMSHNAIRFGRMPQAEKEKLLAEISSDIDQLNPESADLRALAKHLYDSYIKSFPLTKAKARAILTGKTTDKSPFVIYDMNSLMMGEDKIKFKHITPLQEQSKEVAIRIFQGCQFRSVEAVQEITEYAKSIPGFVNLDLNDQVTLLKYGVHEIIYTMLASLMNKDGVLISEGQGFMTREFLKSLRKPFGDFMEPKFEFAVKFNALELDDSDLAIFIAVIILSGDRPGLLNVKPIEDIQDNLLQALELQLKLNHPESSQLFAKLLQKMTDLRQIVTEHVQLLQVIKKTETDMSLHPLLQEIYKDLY
# PPARγ [4] = target: T2, PPARγ (Mus musculus, UniProt P37238); assay: Transactivation assay on positively regulated PPARγ-dependent promoter (Aox-TK luciferase) in RAW264.7 cells; format: cell-based
# T2 construct: expressed in transfected cells; host or cells: RAW264.7 mouse macrophage cell line
# T2 sequence (P37238 1-475 isoform P37238-2): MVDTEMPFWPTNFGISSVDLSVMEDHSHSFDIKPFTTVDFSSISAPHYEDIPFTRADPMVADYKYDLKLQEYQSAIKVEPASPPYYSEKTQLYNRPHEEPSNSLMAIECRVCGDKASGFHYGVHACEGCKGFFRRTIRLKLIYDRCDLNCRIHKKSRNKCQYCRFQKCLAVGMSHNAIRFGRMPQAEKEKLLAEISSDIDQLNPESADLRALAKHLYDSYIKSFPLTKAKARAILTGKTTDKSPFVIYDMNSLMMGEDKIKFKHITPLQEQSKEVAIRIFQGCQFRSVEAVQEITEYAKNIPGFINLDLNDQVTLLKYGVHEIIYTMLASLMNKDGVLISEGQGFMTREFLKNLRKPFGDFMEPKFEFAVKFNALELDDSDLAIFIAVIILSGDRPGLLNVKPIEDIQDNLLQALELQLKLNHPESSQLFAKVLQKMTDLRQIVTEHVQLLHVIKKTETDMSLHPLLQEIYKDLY
# Description: The RAW264.7 mouse macrophage cell line was transiently transfected with plasmids containing the iNOS or Aox-TK promoters directing luciferase expression as previously described 22. For transrepression experiments, wild-type PPARγ or PPARγ mutants were transfected at a 3:1 ratio to reporter plasmids using Superfect reagent (Qiagen). For siRNA experiments, RAW264.7 cells were transfected with siRNAs (40 nM) using Superfect reagent for 48 h prior to activation with PPARγ ligands and LPS induction. […] Transfection experiments evaluated each experimental condition in triplicate and results were expressed as mean +/− standard deviation. Each transfection experiment was independently repeated at least three times. Statistical analysis was preformed using Student's t-test with P<0.01 considered statistically significant.
# In FIG. 5b, in vivo detection of SUMOylation of PPARγ was performed in HeLa cells transfected with myc-tagged Sumo1 and HA-tagged WT-PPARγ or PPARγ^K365R. Cells were immunoprecipitated for HA tag and blotted for myc tag. NT refers to non-transfected cells. In FIG. 5c, RAW264.7 cells were transfected with wild-type (WT) and mutant HA-PPARγ and Flag(FL)-tagged PIAS1 expression plasmids and treated with Ro for 0, 10, 30 or 60 min. Whole cell extracts were immunoprecipitated for HA tag followed by western blotting for FL-PIAS1. […]
# iNOS promoter [5] = assay: iNOS-luciferase reporter transrepression in RAW264.7 cells transfected with PPARγ; format: cell-based, mouse
# Description: For transrepression experiments, wild-type PPARγ or PPARγ mutants were transfected at a 3:1 ratio to reporter plasmids using Superfect reagent (Qiagen). […] Transfection experiments evaluated each experimental condition in triplicate and results were expressed as mean +/− standard deviation. Each transfection experiment was independently repeated at least three times. Statistical analysis was preformed using Student's t-test with P<0.01 considered statistically significant.
# In FIG. 1b, RAW264.7 cells were transfected with the indicated siRNAs and PPARγ expression and iNOS-luciferase reporter plasmids. Cells were treated with LPS and/or Ro as in panel a prior to assay of luciferase activity. […] In FIG. 1d, RAW264.7 cells were transfected with the indicated siRNAs and PPARγ expression and iNOS-luciferase reporter plasmids. Cells were treated with LPS and/or Ro as in FIG. 1a, prior to assay of luciferase activity. […] In FIG. 1f, RAW264.7 cells were transfected with the indicated siRNAs and PPARγ expression and iNOS-luciferase reporter plasmids and stimulated with LPS for 6 h prior to assay of luciferase activity.
# In FIG. 4a, RAW264.7 cells were transfected with the iNOS reporter, PPARγ expression plasmid and Ubc9-siRNA. 36 h post-transfection cells were pretreated with Ro for 1 h and LPS for 6 h prior to assay of luciferase activity. […]
# iNOS promoter [6] = assay: iNOS-luciferase reporter in RAW264.7 cells transfected with LXRα; format: cell-based, mouse; conditions: RAW264.7, LXRα
# Description: The RAW264.7 mouse macrophage cell line was transiently transfected with iNOS or ABCA1 promoters directing luciferase expression, pCMXhLYRα, FLAGhLXRβ, and their mutants. For transrepression experiments, wildtype LXRα and LXRβ or LXR mutants were transfected at a 3:1 (LXR to reporter plasmid) ratio using Superfect reagent (Qiagen). For siRNA experiments, RAW264.7 cells were transfected with siRNAs (40 nM) using Superfect reagent for 48 h before activation with LXR ligands and LPS induction. […]
# Macrophages were transfected with siRNA for 48 h and then stimulated with LPS ([…]) for 6 h in the absence or presence of LXR ligand (GW3965, 1 μM). iNOS expression in peritoneal macrophages was evaluated by real-time quantitative PCR and iNOS promoter activation in RAW264.7 was evaluated by luciferase assay. […]
# iNOS promoter [7] = assay: ChIP for LXR and NCoR on the iNOS promoter in primary macrophages, LXR ligand; format: cell-based, mouse
# Description: For each experimental condition, 20×10^6 primary macrophages were used. Cells were pre-treated with 1 μM GW3965 (1 h) and stimulated with 1 μg/ml LPS (1 h) before crosslinking for 10 min with 1% formaldehyde. Crosslinked adducts were resuspended and sonicated resulting in DNA fragments of 300-900 bp. Anti-LXR (Calbiochem) or anti-NCoR (Affinity Bioreagents) antibodies were used. Protein-bound, immunoprecipitated DNA was reverse cross-linked at 65° C. overnight and then purified using PCR purification Kit (Qiagen). A 150-bp region of the iNOS promoter was amplified by real time PCR spanning the most proximal NF-κB site to the start of transcription.
# as §2
# [8] = tested on: Ccl3, Ccl7, Cxcl10 and Tgtp; assay: Microarray analysis of primary macrophages treated with LPS with or without PPARγ agonist; format: cell-based, mouse; conditions: LPS (FIG. 2e)
# Description: In FIG. 2a, CHIP analysis of NCoR and Ubc5 occupancy on the iNOS promoter was performed in primary macrophages stimulated with LPS for the indicated times in the presence or absence of Ro. In FIG. 2b, Semi-quantitative RT-PCR analysis of iNOS and GAPDH mRNA in primary macrophages. Cells were treated with Ro 1 h before (pre) or 1 h following (post) stimulation with LPS. RNA was isolated for analysis 6 h after LPS treatment. In FIG. 2c, ChIP analysis for p65 and PPARγ on iNOS and CD36 promoters in primary macrophages was performed as described in FIG. 2a. In FIG. 2d, ChIP analysis of the iNOS promoter for NCoR and PPARγ was carried out in primary macrophages 1 h following LPS stimulation. Ro was given 1 h before (pre) or 1 h after (post) stimulation. Cells were transfected with control or NCoR-specific siRNAs 48 h prior to LPS stimulation. In FIG. 2e, Expression data derived from microarray analysis of primary macrophages treated with LPS in the presence or absence of the PPARγ-specific agonist GW7845. In FIG. 2f, ChIP analysis for NCoR and PPARγ on the indicated promoters was carried out using primary macrophages as in 2d.
# iNOS gene [9] = assay: iNOS mRNA in LPS-stimulated primary macrophages (Northern blot / semi-quantitative RT-PCR), PPARγ ligands; format: cell-based, mouse; conditions: as little as 10 nM Trichostatin A 1 h, then 1 μM Ro 2 h, LPS 6 h (FIG. 1c)
# Description: Primary macrophages were elicited by intra-peritoneal injection with 2 ml of thioglycollate. […] For RNAi experiments, smart-pool siRNAs (Dharmacon) against PIAS1, Ubc9, HDAC3, HDAC7 or control non-specific and previously validated NCoR were transected using lipofectamine 2000 (Invitrogen) into primary macrophages and incubated for 48 h.
# Total RNA (Trizol method) was prepared from thioglycollate-elicited primary macrophages pre-treated with 1 μM Ro (2 h) prior to 1 μg/ml LPS stimulation (6 h). One μg of total RNA was used for cDNA synthesis using the First-strand synthesis RT system (Invitrogen). Two μl of cDNA was used for PCR using iNOS or inflammatory gene specific primers amplifying a 0.7 kb region of cDNA. GAPDH cDNA samples were carried out for 22 to 25 cycles. […]
# Total RNA was analyzed for iNOS and GAPDH mRNA by Northern Blotting. […] Cells were stimulated with LPS for 6 h and total RNA was analyzed as in FIG. 1a. […] A 150 base pair region of the iNOS promoter spanning the most proximal NF-κB site to the start of transcription was analyzed by ChIP assays using the indicated antibodies. […]
# In FIG. 2a, CHIP analysis of NCoR and Ubc5 occupancy on the iNOS promoter was performed in primary macrophages stimulated with LPS for the indicated times in the presence or absence of Ro. In FIG. 2b, Semi-quantitative RT-PCR analysis of iNOS and GAPDH mRNA in primary macrophages. […]
compound,measurement,setting,value
CC(C)CC[C@@H](O)[C@@H](C)[C@H]1CC[C@H]2[C@@H]3CC=C4C[C@@H](O)CC[C@]4(C)[C@H]3CC[C@]12C [22R-hydroxycholesterol],induction of ABCA1 expression,ABCA1 gene,induce ABCA1 expression
same,repression of iNOS activation,iNOS gene [1],repress iNOS activation
"C[C@H](CC[C@@H]1OC1(C)C)[C@H]1CC[C@H]2[C@@H]3CC=C4C[C@@H](O)CC[C@]4(C)[C@H]3CC[C@]12C [24(S), 25-epoxycholesterol]",induction of ABCA1 expression,ABCA1 gene,induce ABCA1 expression
same,repression of iNOS activation,iNOS gene [1],repress iNOS activation
CC(C)C(O)CC[C@@H](C)[C@H]1CC[C@H]2[C@@H]3CC=C4C[C@@H](O)CC[C@]4(C)[C@H]3CC[C@]12C (some centres unmarked) [24-hydroxycholesterol],induction of ABCA1 expression,ABCA1 gene,induce ABCA1 expression
same,repression of iNOS activation,iNOS gene [1],repress iNOS activation
C[C@H](CCCC(C)(C)O)[C@H]1CC[C@H]2[C@@H]3CC=C4C[C@@H](O)CC[C@]4(C)[C@H]3CC[C@]12C [25 hydroxycholesterol],induction of ABCA1 expression,ABCA1 gene,activate ABCA1
same,repression of iNOS activation,iNOS gene [1],do not repress iNOS activation
C[C@@H](CO)CCC[C@@H](C)[C@H]1CC[C@H]2[C@@H]3CC=C4C[C@@H](O)CC[C@]4(C)[C@H]3CC[C@]12C [27-hydroxycholesterol],induction of ABCA1 expression,ABCA1 gene,activate ABCA1
same,repression of iNOS activation,iNOS gene [1],do not repress iNOS activation
CCCCCCCC1SC(CC(=O)N(Cc2ccccc2)Cc2ccccc2)C(=O)N1CCCCc1ccc(C(=O)O)cc1 (centres unmarked) [GW0072],NCoR and HDAC3 occupancy of iNOS promoter after LPS stimulation,iNOS promoter [2],both NCoR and HDAC3 remained on the iNOS promoter
same,dissociation of NCoR from PPARγ,PPARγ [3],effective at dissociating NCoR from PPARγ; also recorded: disrupts direct interactions between NCoR and PPARγ
same,stimulation of interactions with nuclear receptor coactivators,PPARγ [3],only weakly stimulates
CN(CCOc1ccc(C[C@H](Nc2ccccc2C(=O)c2ccccc2)C(=O)O)cc1)c1ccccn1 [GW1929],transactivation activity,PPARγ [4],strong transactivation activity
same,repression of LPS induced iNOS promoter activity,iNOS promoter [5],very weak repressor
O=C(O)Cc1cccc(OCCCN(Cc2cccc(C(F)(F)F)c2Cl)CC(c2ccccc2)c2ccccc2)c1 [GW3965],effect of NCoR-specific siRNA on ligand-dependent repression of iNOS promoter activation,iNOS promoter [6]; GW3965 1 μM (FIG. 10B),abolishes
same,effect of Ubc9-specific siRNA on ligand-dependent repression of iNOS promoter activation,iNOS promoter [6]; GW3965 1 µM (FIG. 11B),significantly impairs
same,effect of NCoR-specific siRNA on ligand-dependent repression of LPS-induced iNOS expression,"iNOS gene [1]; peritoneal macrophages, GW3965 1 μM, LPS 1 mg/ml 6 h (FIG. 10A)",abolishes
same,effect of Ubc9-specific siRNA on ligand-dependent repression of LPS-induced iNOS expression,"iNOS gene [1]; peritoneal macrophages, GW3965 1 μM, LPS 1 mg/ml 6 h (FIG. 11A)",significantly impairs
same,LXR recruitment on the iNOS promoter,"iNOS promoter [7]; GW3965 1 μM, LPS 1 h (FIG. 10C)",ligand-dependent and NCoR-dependent LXR recruitment
same,LPS-stimulated release of NCoR from the iNOS promoter,"iNOS promoter [7]; peritoneal macrophages, GW3965 1 μM (FIG. 10D)",inhibits
COC(=O)c1ccccc1N[C@@H](Cc1ccc(OCCc2nc(-c3ccccc3)oc2C)cc1)C(=O)O [GW7845],"effect on LPS induction of Ccl3, Ccl7, Cxcl10 and Tgtp",[8],repression of the LPS response
CC(/C=C/C(=O)NO)=C\[C@@H](C)C(=O)c1ccc(N(C)C)cc1 [Trichostatin A],effect on rosiglitazone-dependent transrepression of iNOS,iNOS gene [9],reversed rosiglitazone-dependent transrepression of iNOS

# From patent publication US8241863B2, “Identification of an evolutionarily conserved pathway mediating transrepression of inflammatory response genes by nuclear receptors” (The Regents of the University of California, priority 2005, dated 2012)
